Results taken from ChEMBL document CHEMBL6109139, “Rational Design of the First Dual Agonist at Trace Amine-Associated Receptor 1 and 5-HT2C Receptors Based on Binding Pocket Similarity for the Treatment of Schizophrenia and Alzheimer's Disease-Related Psychosis” (J Med Chem, 2025).
Activity calls are given as the source filed them. No cut-off for these calls is given here.

Tests used:
[1] = target: T1, Trace amine-associated receptor 1 (Homo sapiens) (UniProt Q96RJ0); test: Agonist activity at human TAAR1 extracted from CHO-K1 cell membrane coexpressing AGTRL1/Gi by measuring maximum efficacy at 0 to 100 uM by cAMP assay relative to control; format: functional, cell membranes; settings: dose 0-100 µM
T1 sequence (whole entry): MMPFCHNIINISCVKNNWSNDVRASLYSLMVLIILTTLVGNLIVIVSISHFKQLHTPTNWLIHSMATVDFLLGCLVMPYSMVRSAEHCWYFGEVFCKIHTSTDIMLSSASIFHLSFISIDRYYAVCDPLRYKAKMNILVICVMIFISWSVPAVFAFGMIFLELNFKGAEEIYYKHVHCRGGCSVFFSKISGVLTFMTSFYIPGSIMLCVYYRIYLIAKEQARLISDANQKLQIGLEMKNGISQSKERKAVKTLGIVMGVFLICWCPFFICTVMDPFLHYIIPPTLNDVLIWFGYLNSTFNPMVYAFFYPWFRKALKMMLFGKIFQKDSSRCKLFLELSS

[2] = target: T2, Trace amine-associated receptor 1 (Homo sapiens, UniProt Q96RJ0); test: Agonist activity at human TAAR1 extracted from CHO-K1 cell membrane coexpressing AGTRL1/Gi by cAMP assay; format: functional, cell membranes
T2 sequence (Q96RJ0 whole entry): T1 sequence (whole entry)

[3] = target: Trace amine-associated receptor 1 (Rattus norvegicus, UniProt Q923Y9); test: Agonist activity at rat TAAR1; format: functional
[4] = target: Trace amine-associated receptor 1 (Mus musculus, UniProt Q923Y8); test: Agonist activity at mouse TAAR1; format: functional
[5] = target: Trace amine-associated receptor 1 (Mus musculus) (UniProt Q923Y8); test: Agonist activity at mouse TAAR1 by measuring maximum efficacy relative to control; format: functional; settings: filed as agonist
[6] = target: Trace amine-associated receptor 1 (Rattus norvegicus) (UniProt Q923Y9); test: Agonist activity at rat TAAR1 by measuring maximum efficacy relative to control; format: functional; settings: filed as agonist
[7] = tested on: Mus musculus; test: Antipsychotic activity in amyloid beta (1 to 42) induced hyperlocomotion in mouse model assessed as decrease in total distance traveled at 10 mg/kg by open field test; format: functional, organism-based
[8] = tested on: Mus musculus; test: Antipsychotic activity against DOI-induced head-twitch response in mouse assessed as reduction in head-twitch response at 10 mg/kg, IG measured for 30 mins; format: functional, organism-based
[9] = tested on: Mus musculus; test: Antipsychotic activity in amyloid beta(1 to 42) induced cognitive impairment in mouse model assessed as reduction in exploration time at 1 mg/kg, IG measured after 24 hrs by novel object recognition test; format: functional, organism-based
[10] = tested on: Mus musculus; test: Antipsychotic activity in amyloid beta(1 to 42) induced cognitive impairment in mouse model assessed as increase in discrimination ratio of novel objects at 1 mg/kg, IG measured after 24 hrs by novel object recognition test; format: functional, organism-based
[11] = target: T3, 5-hydroxytryptamine receptor 2C (Homo sapiens) (UniProt P28335); test: Agonist activity at recombinant human 5-HT2CR expressed in HEK293 cells incubated for 2 hrs by measuring maximum efficacy by FLIPR calcium assay relative to control; format: functional, cell-based
T3 sequence (whole entry): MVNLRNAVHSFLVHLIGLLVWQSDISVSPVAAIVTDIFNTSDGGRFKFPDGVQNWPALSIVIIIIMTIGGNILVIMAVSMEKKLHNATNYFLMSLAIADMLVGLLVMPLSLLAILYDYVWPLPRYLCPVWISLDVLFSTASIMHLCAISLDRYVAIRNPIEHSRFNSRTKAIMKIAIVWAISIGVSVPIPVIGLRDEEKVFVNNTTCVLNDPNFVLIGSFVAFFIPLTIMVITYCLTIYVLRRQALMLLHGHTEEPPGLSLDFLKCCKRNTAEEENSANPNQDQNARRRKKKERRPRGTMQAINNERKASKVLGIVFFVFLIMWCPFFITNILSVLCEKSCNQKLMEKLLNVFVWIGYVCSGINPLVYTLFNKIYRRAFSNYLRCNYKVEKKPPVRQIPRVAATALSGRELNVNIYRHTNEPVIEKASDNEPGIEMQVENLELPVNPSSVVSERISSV

[12] = target: T4, 5-hydroxytryptamine receptor 2C (Homo sapiens, UniProt P28335); test: Agonist activity at recombinant human 5-HT2CR expressed in HEK293 cells incubated for 2 hrs by FLIPR calcium assay; format: functional, cell-based
T4 sequence (P28335 whole entry): T3 sequence (whole entry)

[13] = target: 5-hydroxytryptamine receptor 2C (Rattus norvegicus) (UniProt P08909); test: Agonist activity at rat 5-HT2CR by measuring maximum efficacy relative to control; format: functional; settings: filed as agonist
[14] = target: T3, 5-hydroxytryptamine receptor 2C (Homo sapiens); test: Partial agonist activity at recombinant human 5-HT2CR expressed in HEK293 cells incubated for 2 hrs by measuring maximum efficacy by FLIPR calcium assay relative to control; format: functional, cell-based; settings: filed as partial agonist
[15] = tested on: Mus musculus; test: Antipsychotic activity against MK-801 induced hypermobilization in male C57BL/6J mouse model assessed as reduction in hypermobilization state at 3 mg/kg, IG pretreated with compound followed by MK-801 addition and measured after 30 mins by open field test; format: functional, organism-based
[16] = species on record: Mus musculus; test: Antipsychotic activity against MK-801 induced hyperlocomotion in male C57BL/6J mouse model assessed as effective dose; format: functional
[17] = tested on: Mus musculus; test: Antidepressant activity in chronic social defeat stress induced depressive C57BL/6J mouse model assessed as increase in time of interaction zone at 10 mg/kg, IG measured after 15 mins by open field test; format: functional, organism-based

Sequence of Trace amine-associated receptor 1 (Mus musculus) (Q923Y8 whole entry): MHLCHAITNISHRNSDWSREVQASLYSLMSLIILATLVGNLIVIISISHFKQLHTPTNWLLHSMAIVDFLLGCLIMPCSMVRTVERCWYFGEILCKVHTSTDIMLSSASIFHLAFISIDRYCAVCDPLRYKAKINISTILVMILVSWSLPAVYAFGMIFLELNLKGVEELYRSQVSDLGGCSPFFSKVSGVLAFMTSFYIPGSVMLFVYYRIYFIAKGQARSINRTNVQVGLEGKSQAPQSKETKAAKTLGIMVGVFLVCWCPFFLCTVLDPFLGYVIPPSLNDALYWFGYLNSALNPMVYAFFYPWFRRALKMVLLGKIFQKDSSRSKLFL
Sequence of Trace amine-associated receptor 1 (Mus musculus, UniProt Q923Y8) (Q923Y8 whole entry): as above
Sequence of Trace amine-associated receptor 1 (Rattus norvegicus, UniProt Q923Y9) (Q923Y9 whole entry): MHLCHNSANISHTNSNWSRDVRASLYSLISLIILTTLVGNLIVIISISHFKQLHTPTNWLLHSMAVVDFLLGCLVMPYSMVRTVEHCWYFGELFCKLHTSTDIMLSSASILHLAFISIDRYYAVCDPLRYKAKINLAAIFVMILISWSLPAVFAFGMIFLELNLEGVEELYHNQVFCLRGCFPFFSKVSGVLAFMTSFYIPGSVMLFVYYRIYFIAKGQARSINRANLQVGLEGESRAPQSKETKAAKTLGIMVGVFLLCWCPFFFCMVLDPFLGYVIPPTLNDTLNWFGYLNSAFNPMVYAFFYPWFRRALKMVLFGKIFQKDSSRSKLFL
Sequence of Trace amine-associated receptor 1 (Rattus norvegicus) (Q923Y9 whole entry): as above
Sequence of 5-hydroxytryptamine receptor 2C (Rattus norvegicus) (P08909 whole entry): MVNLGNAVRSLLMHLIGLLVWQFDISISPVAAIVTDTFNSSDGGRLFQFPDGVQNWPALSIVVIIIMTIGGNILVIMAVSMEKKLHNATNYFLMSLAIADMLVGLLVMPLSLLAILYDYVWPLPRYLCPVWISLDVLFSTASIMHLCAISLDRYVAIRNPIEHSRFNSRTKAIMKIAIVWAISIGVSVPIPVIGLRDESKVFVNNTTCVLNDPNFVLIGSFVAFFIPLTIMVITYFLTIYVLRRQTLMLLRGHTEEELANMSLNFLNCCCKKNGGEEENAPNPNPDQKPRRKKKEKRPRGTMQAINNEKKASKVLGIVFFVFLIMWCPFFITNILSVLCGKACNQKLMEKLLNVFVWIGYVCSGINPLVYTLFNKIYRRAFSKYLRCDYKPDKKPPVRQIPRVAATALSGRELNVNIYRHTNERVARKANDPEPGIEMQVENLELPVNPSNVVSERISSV

SMILES | Emax ([1]; filed as agonist) [%] | EC50 [2] [µM] | other results
CCCN1CCc2ccsc2C1CN (stereo in doubt; 19b) [listing 1 of 2 here] |  |  | Emax [1]: 34.3%
c1ccc2sc(C3CNCCO3)cc2c1 (racemic) | 72.1 | 4.35 | 
CCCCCN1CCc2ccsc2C1CN (stereo in doubt; 20a) [listing 1 of 2 here] |  | > 30 | 
CC(=O)c1ccsc1C1CNCCO1 (stereo in doubt; 36b) [listing 1 of 2 here] | 41.7 |  | 
NCCc1ccc(O)cc1 [TYRAMINE] | 103 | 0.93 | EC50 [3]: 228 nM; EC50 [4]: 850 nM; Emax [5]: 103%; Emax [6]: 99%
CNCC1OC(COC)Cc2ccsc21 (racemic) | 64 | 38 | 
CCCN1CCc2ccsc2C1CN (stereo in doubt; 19a) [listing 1 of 2 here] |  |  | Emax [1]: 35.7%
CNCC1NCCc2ccsc21 (stereo in doubt; 17b) [listing 1 of 2 here] |  | 7.96 | 
CNCC1SCCc2ccsc21 (stereo in doubt; 16a) [listing 1 of 2 here] |  |  | Emax [1]: 37.4%
c1cc2c(o1)C1CNCCN1CC2 (stereo in doubt; 22b) [listing 1 of 2 here] |  | 0.776 | 
CNCC1OCCc2ccoc21 (racemic) | 105 |  | 
COc1ccccc1C1CNCCO1 (racemic) | 79 | 1.39 | 
CCCN1CCc2ccsc2C1CN (stereo in doubt; 19b) [listing 2 of 2 here] |  | 6.93 | 
CC(C)Oc1ccsc1C1CNCCO1 (racemic) |  | > 100 | Emax [1]: 18.1%
c1csc(C2CNCO2)c1 (racemic) | 97 | 6.4 | 
OCC1OCCc2ccsc21 (stereo in doubt; 15a) [listing 1 of 2 here] |  |  | Emax [1]: 1.94%
CC(=O)c1ccsc1C1CNCCO1 (stereo in doubt; 36a) [listing 1 of 2 here] |  | > 100 | 
COc1csc(C2CNCCO2)c1 (stereo in doubt; 26b) [listing 1 of 2 here] |  | 2.16 | 
CNCC1NCCc2ccsc21 (stereo in doubt; 17b) [listing 2 of 2 here] | 61.2 |  | 
O=c1ccc2ccc(OCCCCN3CCN(c4cccc5sccc45)CC3)cc2[nH]1 |  |  | Activity [7]: Active; Activity [8]: Active; Activity [9]: Active; Activity [10]: inactive
c1ccc2c(c1)CCN1CCNCC21 (racemic) [AZAQUINZOLE] |  | 41.7 | Emax [1]: 37.2%
CN1CCc2ccsc2C1CN (stereo in doubt; 18a) [listing 1 of 2 here] |  | > 100 | 

SMILES | Emax ([1]; filed as agonist) [%] | EC50 [2] [µM] | other results
c1csc([C@@H]2CNCCO2)c1 | 80.1 |  | Emax ([11]; filed as agonist): 101%; EC50 [12]: 3.49 µM
CC1(c2cccs2)CNCCO1 (racemic) | 92.6 | 20.7 | 
CN1CCc2ccsc2C1CN (stereo in doubt; 18a) [listing 2 of 2 here] |  |  | Emax [1]: 18.9%
COc1ccc(C2CNCCO2)s1 (stereo in doubt; 27b) [listing 1 of 2 here] | 96.9 |  | 
OCC1OCCc2ccsc21 (stereo in doubt; 15b) |  |  | Emax [1]: 2.72%
COc1ccsc1C1CNCCO1 (stereo in doubt; 25b) | 76.4 |  | 
Fc1csc(C2CNCCO2)c1 (racemic) | 107 |  | 
CCCN1CCc2ccsc2C1CN (stereo in doubt; 19a) [listing 2 of 2 here] |  | 7.97 | 
c1cc2c(s1)CCN1CCNCC21 (stereo in doubt; 23b) [listing 1 of 2 here] | 77 |  | 
CCCCCN1CCc2ccsc2C1CN (stereo in doubt; 20a) [listing 2 of 2 here] |  |  | Emax [1]: 0%
CCCCCN1CCc2ccsc2C1CN (stereo in doubt; 20b) |  |  | Emax [1]: 15.6%
NCCc1c[nH]c2ccc(O)cc12 |  |  | Emax [13]: 102%
FC(F)(F)COc1ccsc1C1CNCCO1 (racemic) | 97.7 |  | 
FC(F)COc1ccsc1C1CNCCO1 (racemic) | 75.2 | 32.4 | 
c1cc2c(o1)C1CNCCN1CC2 (stereo in doubt; 22b) [listing 2 of 2 here] | 94.3 |  | 
c1cc2c(s1)CCN1CCNCC21 (stereo in doubt; 23a) [listing 1 of 2 here] |  | 14.2 | 
CNCC1SCCc2ccsc21 (stereo in doubt; 16b) [listing 1 of 2 here] | 74.6 |  | 
CNCC1NCCc2ccsc21 (stereo in doubt; 17a) [listing 1 of 2 here] |  |  | Emax [1]: 33.8%
c1cc2c(o1)C1CNCCN1CC2 (stereo in doubt; 22a) [listing 1 of 2 here] |  | 0.036 | 
COc1ccsc1C1CNCCO1 (stereo in doubt; 25a) | 94.1 |  | Emax [14]: 68.3%; Activity [15]: Active; Similar Effect Compared To Ulotaront
CNCC1NCCc2ccsc21 (stereo in doubt; 17a) [listing 2 of 2 here] |  | 42.1 | 
OCC1OCCc2ccsc21 (stereo in doubt; 15a) [listing 2 of 2 here] |  | > 100 | 

SMILES | Emax ([1]; filed as agonist) [%] | EC50 [2] [µM] | other results
c1cc(C2CC2)c(C2CNCCO2)s1 (racemic) | 98.6 |  | 
CNCC1OCC(C)(C)c2ccsc21 (racemic) | 53.3 | 24.1 | 
FCCOc1ccsc1C1CNCCO1 (racemic) | 46.7 |  | 
CCc1[nH]nc(C(=O)Nc2ccc([C@H]3CNCCO3)cc2)c1C [RALMITARONT] | 66 |  | ED50 [16]: < 400 mg/kg; Emax [11]: 0.13%; EC50 [12]: > 100 µM
CN1CCc2ccsc2C1CN (stereo in doubt; 18b) | 96.5 |  | 
c1cc2c(o1)C1CNCCN1CC2 (stereo in doubt; 22a) [listing 2 of 2 here] | 95.6 |  | 
COc1csc(C2CNCCO2)c1 (stereo in doubt; 26a) [listing 1 of 2 here] | 63.8 |  | 
COc1ccc(C2CNCCO2)s1 (stereo in doubt; 27b) [listing 2 of 2 here] |  | 1.59 | 
CC(=O)c1ccsc1C1CNCCO1 (stereo in doubt; 36b) [listing 2 of 2 here] |  | 15.2 | 
COc1csc(C2CNCCO2)c1 (stereo in doubt; 26a) [listing 2 of 2 here] |  | 23.6 | 
Fc1ccc(C2CNCCO2)s1 (racemic) | 80.8 |  | 
COc1ccc(C2CNCCO2)s1 (stereo in doubt; 27a) [listing 1 of 2 here] |  | 37.5 | 
CC(=O)c1ccsc1C1CNCCO1 (stereo in doubt; 36a) [listing 2 of 2 here] |  |  | Emax [1]: 2.04%
CNCC1SCCc2ccsc21 (stereo in doubt; 16a) [listing 2 of 2 here] |  | 20.7 | 
COc1csc(C2CNCCO2)c1 (stereo in doubt; 26b) [listing 2 of 2 here] | 85.6 |  | 
c1cc2c(s1)CCN1CCNCC21 (stereo in doubt; 23b) [listing 2 of 2 here] |  | 1.03 | 
CNCC1OC(C)(C)Cc2ccsc21 (racemic) | 99.6 |  | 
CNCC1SCCc2ccsc21 (stereo in doubt; 16b) [listing 2 of 2 here] |  | 0.522 | 
Fc1ccsc1C1CNCCO1 (racemic) | 100 | 0.252 | 
Cc1cc2c(s1)Nc1ccccc1N=C2N1CCN(C)CC1 |  |  | Activity [17]: Active
c1cc2c(s1)CCN1CCNCC21 (stereo in doubt; 23a) [listing 2 of 2 here] | 51 |  | 
COc1ccc(C2CNCCO2)s1 (stereo in doubt; 27a) [listing 2 of 2 here] | 69 |  | 
